Laboratory results reported in US20160229839A1, “Factor XIa Inhibitors” (Merck Sharp & Dohme Corp., priority 2013, published 2016).

Target: T1, purified human Factor XIa (Homo sapiens, UniProt P03951)
T1 construct: purified human Factor XIa; purchased Sekisui Diagnostics
Test: Factor XIa Assay (fluorogenic substrate Z-Gly-Pro-Arg-AFC)
Assay type: biochemical
Conditions: purified human Factor XIa 40 pM; Z-Gly-Pro-Arg-AFC 100 μM; 50 mM HEPES pH 7.4; read-out: hFXIa Ki (nM), Factor XIa inhibition
Protocol: The effectiveness of compound of the present invention as inhibitors of Coagulation Factor XIa can be determined using a relevant purified serine protease, and an appropriate synthetic substrate. The rate of hydrolysis of the chromogenic or fluorogenic substrate by the relevant serine protease was measured both in the absence and presence of compounds of the present invention. Assays were conducted at room temperature or at 37° C. […] A decrease in the rate of fluorescence change in the presence of inhibitor is indicative of enzyme inhibition. Such methods are known to one skilled in the art. The results of this assay are expressed as the inhibitory constant, Ki.
Factor XIa determinations were made in 50 mM HEPES buffer at pH 7.4 containing 150 mM NaCl, 5 mM CaCl2, and 0.1% PEG 8000 (polyethylene glycol; J T Baker or Fisher Scientific). Determinations were made using purified human Factor XIa at a final concentration of 40 pM (Sekisui Diagnostics) and he synthetic substrate, Z-Gly-Pro-Arg-AFC, TFA salt (Sigma #C0980) at a concentration of 100 μM.
Activity assays were performed by diluting a stock solution of substrate at least tenfold to a final concentration ≦0.1 Km into a solution containing enzyme or enzyme equilibrated with inhibitor. Times required to achieve equilibration between enzyme and inhibitor were determined in control experiments. Initial velocities of product formation in the absence (Vo) or presence of inhibitor (Vi) were measured. Assuming competitive inhibition, and that unity is negligible compared Km/[S], [I]/e, and [I]/e (where [S], [I], and e respectively represent the total concentrations, of substrate, inhibitor and enzyme), the equilibrium constant (Ki) for dissociation of the inhibitor from the enzyme can be obtained from the dependence of Vo/Vi on [I] shown in the following equation.

T1 sequence (P03951 388-625 limits assumed): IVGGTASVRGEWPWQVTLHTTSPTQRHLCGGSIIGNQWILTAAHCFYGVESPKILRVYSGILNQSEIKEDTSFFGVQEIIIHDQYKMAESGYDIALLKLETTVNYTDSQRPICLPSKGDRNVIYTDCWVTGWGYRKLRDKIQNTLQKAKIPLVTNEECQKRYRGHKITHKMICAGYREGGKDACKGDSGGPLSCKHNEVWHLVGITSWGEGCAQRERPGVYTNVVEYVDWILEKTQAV
T1 sequence (P03951 19-387 partner limits assumed): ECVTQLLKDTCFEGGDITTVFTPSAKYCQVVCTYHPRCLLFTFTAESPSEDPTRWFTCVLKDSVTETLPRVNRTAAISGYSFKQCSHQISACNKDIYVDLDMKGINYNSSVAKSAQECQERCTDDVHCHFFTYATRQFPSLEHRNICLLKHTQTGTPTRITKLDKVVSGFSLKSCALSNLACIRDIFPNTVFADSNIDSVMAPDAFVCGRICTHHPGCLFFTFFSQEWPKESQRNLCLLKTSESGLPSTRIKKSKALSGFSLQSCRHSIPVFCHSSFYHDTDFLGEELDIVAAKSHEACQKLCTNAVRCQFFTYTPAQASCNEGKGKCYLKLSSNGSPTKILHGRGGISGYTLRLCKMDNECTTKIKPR

| Ki [nM] | SMILES |
| --- | --- |
| > 10000 | CC(C)(C)OC(=O)c1ccc(NC(=O)C2C(c3ccccc3)CCCN2C(=O)/C=C/c2cc(Cl)ccc2-n2cnnn2)cc1 (racemic) [Example 1-1, (E)-tert-butyl 4-(1-(3-(5-chloro-2-(1H-tetrazol-1-yl)phenyl)acryloyl)-3-phenylpiperidine-2-carboxamido)benzoate] |
| 80.9 | O=C(O)c1ccc(NC(=O)[C@@H]2[C@H](c3ccccc3)CCCN2C(=O)/C=C/c2cc(Cl)ccc2-n2cnnn2)cc1 (racemic) [Example 1-2, (E)-1-(2-(3-(2-((4-carboxyphenyl)carbamoyl)-3-phenylpiperidin-1-yl)-3-oxoprop-1-en-1-yl)-4-chlorophenyl)-1H-tetrazol-2-ium 2,2,2-trifluoroacetate] |
| 572 | NC1CCc2cc(C(=O)N3CCCC(c4ccccc4)C3C(=O)Nc3ccc(C(=O)O)cc3)ccc21 (racemic) [Example 1-14, 4-(1-(1-amino-2,3-dihydro-1H-indene-5-carbonyl)-3-phenylpiperidine-2-carboxamido)benzoic acid] |
| > 10000 | COC(=O)c1cccc(-c2c[nH]c(C3C(c4ccccc4)CCCN3C(=O)/C=C/c3cc(Cl)ccc3-n3cnnn3)n2)c1 (racemic) [Example 1-54, (E)-methyl 3-(2-(1-(3-(5-chloro-2-(1H-tetrazol-1-yl)phenyl)acryloyl)-3-phenylpiperidin-2-yl)-1H-imidazol-4-yl)benzoate] |
| 7.6 | O=C(O)c1ccc(NC(=O)[C@@H]2[C@H](c3ccccc3)CCCN2C(=O)/C=C/c2cc(Cl)ccc2-n2cnnn2)cc1 (single isomer, unassigned) [Example 1-57] |
| 19.3 | O=C(O)c1cccc(-c2c[nH]c([C@@H]3[C@H](c4ccccc4)CCCN3C(=O)/C=C/c3cc(Cl)ccc3-n3cnnn3)n2)c1 (single isomer, unassigned) [Example 1-69] |
| 5730 | O=C(O)c1cccc(-c2c[nH]c([C@H]3[C@@H](c4ccccc4)CCCN3C(=O)/C=C/c3cc(Cl)ccc3-n3cnnn3)n2)c1 (single isomer, unassigned) [Example 1-70] |
| > 10000 | CC(C)(C)OC(=O)c1ccc(NC(=O)C2C(C3CCCCC3)CCCN2C(=O)/C=C/c2cc(Cl)ccc2-n2cnnn2)cc1 (centres unmarked) [Example 1-3, (E)-tert-butyl 4-(1-(3-(5-chloro-2-(1H-tetrazol-1-yl)phenyl)acryloyl)-3-cyclohexylpiperidine-2-carboxamido)benzoate] |
| > 10000 | CC(C)(C)OC(=O)C1CCC(NC(=O)C2C(C3CCCCC3)CCCN2C(=O)/C=C/c2cc(Cl)ccc2-n2cnnn2)CC1 (centres unmarked) [Example 1-4, (E)-tert-butyl 4-(1-(3-(5-chloro-2-(1H-tetrazol-1-yl)phenyl)acryloyl)-3-cyclohexylpiperidine-2-carboxamido)cyclohexanecarboxylate] |
| 44 | O=C(O)c1ccc(NC(=O)C2C(C3CCCCC3)CCCN2C(=O)/C=C/c2cc(Cl)ccc2-n2cnnn2)cc1 (centres unmarked) [Example 1-5, (E)-1-(2-(3-(2-((4-carboxyphenyl)carbamoyl)-3-cyclohexylpiperidin-1-yl)-3-oxoprop-1-en-1-yl)-4-chlorophenyl)-1H-tetrazol-2-ium 2,2,2-trifluoroacetate] |
| 5250 | O=C(O)C1CCC(NC(=O)C2C(C3CCCCC3)CCCN2C(=O)/C=C/c2cc(Cl)ccc2-n2cnnn2)CC1 (centres unmarked) [Example 1-6, 2,2,2-trifluoroacetate] |
| 905 | O=C(/C=C/c1cc(Cl)ccc1-n1cnnn1)N1CCCC(c2ccccc2)C1c1nc(-c2cccnc2)c[nH]1 (centres unmarked) [Example 1-7, (E)-3-(5-chloro-2-(1H-tetrazol-1-yl)phenyl)-1-(3-phenyl-2-(4-(pyridin-3-yl)-1H-imidazol-2-yl)piperidin-1-yl)prop-2-en-1-one] |
| 15.4 | N=C(N)N1CCC(C(=O)N2CCCC(c3ccccc3)C2C(=O)Nc2ccc(C(=O)O)cc2)CC1 (centres unmarked) [Example 1-8, 4-(1-(1-carbamimidoylpiperidine-4-carbonyl)-3-phenylpiperidine-2-carboxamido)benzoic acid] |
| 57.1 | O=C(O)c1ccc(NC(=O)C2C(c3ccccc3)CCCN2C(=O)CCc2cc(Cl)ccc2-n2cnnn2)cc1 (centres unmarked) [Example 1-9, 4-(1-(3-(5-chloro-2-(1H-tetrazol-1-yl)phenyl)propanoyl)-3-phenylpiperidine-2-carboxamido)benzoic acid] |
| 18.1 | O=C(O)c1ccc(NC(=O)C2C(c3cccc(F)c3)CCCN2C(=O)/C=C/c2cc(Cl)ccc2-n2cnnn2)cc1 (centres unmarked) [Example 1-10, (E)-4-(1-(3-(5-chloro-2-(H-tetrazol-1-yl)phenyl)acryloyl)-3-(3-fluorophenyl)piperidine-2-carboxamido)benzoic acid] |
| 8650 | O=C(/C=C/c1cc(Cl)ccc1-n1cnnn1)N1CCCC(c2ccccc2)C1c1nc(-c2cccnc2)c[nH]1 [Example 1-11, (E)-3-(5-chloro-2-(1H-tetrazol-1-yl)phenyl)-1-(3-phenyl-2-(4-(pyridin-3-yl)-1H-imidazol-2-yl)piperidin-1-yl)prop-2-en-1-one (2R,3R)] |
| 570 | O=C(/C=C/c1cc(Cl)ccc1-n1cnnn1)N1CCCC(c2ccccc2)C1c1nc(-c2cccnc2)c[nH]1 [Example 1-12, (E)-3-(5-chloro-2-(1H-tetrazol-1-yl)phenyl)-1-(3-phenyl-2-(4-(pyridin-3-yl)-1H-imidazol-2-yl)piperidin-1-yl)prop-2-en-1-one (2S,3S)] |
| > 10000 | O=C(/C=C/c1cc(Cl)ccc1-n1cnnn1)N1CCCC(c2ccccc2)C1c1nc(-c2ccc(F)cc2)c[nH]1 (centres unmarked) [Example 1-13, (E)-3-(5-chloro-2-(1H-tetrazol-1-yl)phenyl)-1-(2-(4-(4-fluorophenyl)-1H-imidazol-2-yl)-3-phenylpiperidin-1-yl)prop-2-en-1-one] |
| > 10000 | CC(C)(N)c1ccc(C(=O)N2CCCC(c3ccccc3)C2C(=O)Nc2ccc(C(=O)O)cc2)cc1 (centres unmarked) [Example 1-15, 4-(1-(4-(2-aminopropan-2-yl)benzoyl)-3-phenylpiperidine-2-carboxamido)benzoic acid] |
| 619 | N[C@H]1CCc2cc(C(=O)N3CCCC(c4ccccc4)C3C(=O)Nc3ccc(C(=O)O)cc3)ccc21 (stereo partly drawn) [Example 1-16, 4-(1-((S)-1-amino-2,3-dihydro-1H-indene-5-carbonyl)-3-phenylpiperidine-2-carboxamido)benzoic acid] |
| 2850 | O=C(O)c1ccc(NC(=O)C2C(c3cccc(C(F)(F)F)c3)CCCN2C(=O)/C=C/c2cc(Cl)ccc2-n2cnnn2)cc1 (centres unmarked) [Example 1-17, ammonium (E)-4-(1-(3-(5-chloro-2-(1H-tetrazol-1-yl)phenyl)acryloyl)-3-(3-(trifluoromethyl)phenyl)piperidine-2-carboxamido)benzoate] |
| 25.3 | O=C(O)c1ccc(NC(=O)C2C(c3ccc(F)cc3)CCCN2C(=O)/C=C/c2cc(Cl)ccc2-n2cnnn2)cc1 (centres unmarked) [Example 1-18, ammonium (E)-4-(1-(3-(5-chloro-2-(1H-tetrazol-1-yl)phenyl)acryloyl)-3-(4-fluorophenyl)piperidine-2-carboxamido)benzoate] |
| > 10000 | O=C(O)C1CCC(NC(=O)C2C(c3ccc(F)cc3F)CCCN2C(=O)/C=C/c2cc(Cl)ccc2-n2cnnn2)CC1 (centres unmarked) [Example 1-19, ammonium (E)-4-(1-(3-(5-chloro-2-(1H-tetrazol-1-yl)phenyl)acryloyl)-3-(2,4-difluorophenyl)piperidine-2-carboxamido)cyclohexanecarboxylate] |
